Target: PI3Kalpha (Homo sapiens (Human), UniProt P42336)
Conditions: read-out: IC50 PI3K

Sequence of PI3Kalpha (P42336 whole entry, looked up): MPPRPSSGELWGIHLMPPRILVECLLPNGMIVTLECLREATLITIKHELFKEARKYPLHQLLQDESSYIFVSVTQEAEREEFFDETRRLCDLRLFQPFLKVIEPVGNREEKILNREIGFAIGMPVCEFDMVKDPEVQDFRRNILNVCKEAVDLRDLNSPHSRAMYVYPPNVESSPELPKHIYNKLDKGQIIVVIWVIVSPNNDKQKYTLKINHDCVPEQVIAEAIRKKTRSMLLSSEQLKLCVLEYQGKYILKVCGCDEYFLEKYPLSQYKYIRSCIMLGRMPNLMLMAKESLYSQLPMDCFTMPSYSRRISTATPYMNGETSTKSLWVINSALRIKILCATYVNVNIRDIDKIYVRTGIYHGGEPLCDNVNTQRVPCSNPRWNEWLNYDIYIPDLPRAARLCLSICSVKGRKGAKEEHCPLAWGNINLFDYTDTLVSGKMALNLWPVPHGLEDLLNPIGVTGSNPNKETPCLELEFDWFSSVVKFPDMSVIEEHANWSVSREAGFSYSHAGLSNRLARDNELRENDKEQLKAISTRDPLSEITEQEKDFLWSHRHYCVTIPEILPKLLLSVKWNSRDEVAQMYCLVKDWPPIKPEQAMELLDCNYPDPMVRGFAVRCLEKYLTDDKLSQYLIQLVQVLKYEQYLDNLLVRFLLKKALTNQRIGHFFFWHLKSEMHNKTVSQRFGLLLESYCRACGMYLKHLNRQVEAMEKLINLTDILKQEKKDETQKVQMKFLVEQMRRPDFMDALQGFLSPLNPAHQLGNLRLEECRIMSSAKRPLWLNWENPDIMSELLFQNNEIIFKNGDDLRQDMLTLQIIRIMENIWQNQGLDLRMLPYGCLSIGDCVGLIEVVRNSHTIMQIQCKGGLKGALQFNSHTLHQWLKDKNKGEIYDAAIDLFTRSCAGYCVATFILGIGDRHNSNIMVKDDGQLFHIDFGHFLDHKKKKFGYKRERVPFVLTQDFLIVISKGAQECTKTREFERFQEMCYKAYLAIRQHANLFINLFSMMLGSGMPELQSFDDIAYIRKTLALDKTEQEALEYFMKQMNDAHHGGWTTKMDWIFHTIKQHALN

Row | SMILES | IC50 [nM]
1 | CCc1ncnc(-c2ccc(C(=O)N3CCN(C4CCOCC4)CC3)c(F)c2)c1C#Cc1ccc(N)nc1 [Example D-84] | 127
2 | CCc1ncnc(-c2ccc(C(=O)N3CCN(CC(=O)N(C)C)CC3)c(F)c2)c1C#Cc1ccc(N)nc1 [Example D-85] | 115
3 | CCc1ncnc(-c2ccc(C(=O)N3CCN(C4CCS(=O)(=O)C4)CC3)c(F)c2)c1C#Cc1ccc(N)nc1 [Example D-86] | 95
4 | CCc1ncnc(-c2ccc(C(=O)N3CCN4CCCCC4C3)c(F)c2)c1C#Cc1ccc(N)nc1 [Example D-87] | 233
5 | CCc1ncnc(-c2ccc(C(=O)N3CCN(CC4CCCO4)CC3)c(F)c2)c1C#Cc1ccc(N)nc1 [Example D-88] | 118
6 | CCc1ncnc(-c2ccc(C(=O)N3CCN(S(=O)(=O)CC)CC3)c(F)c2)c1C#Cc1ccc(N)nc1 [Example D-89] | 52
7 | CCc1ncnc(-c2ccc(C(=O)N3CCN(C(C)=O)CC3)c(F)c2)c1C#Cc1ccc(N)nc1 [Example D-90] | 62
8 | CCc1ncnc(-c2ccc(C(=O)N3CCN(CCO)CC3)c(F)c2)c1C#Cc1ccc(N)nc1 [Example D-91] | 109
9 | CCc1ncnc(-c2ccc(C(=O)N3CCN(c4ccccn4)CC3)c(F)c2)c1C#Cc1ccc(N)nc1 [Example D-92] | 124
10 | CCc1ncnc(-c2ccc(C(=O)N3CCN(c4ccncc4)CC3)c(F)c2)c1C#Cc1ccc(N)nc1 [Example D-93] | 266
11 | CCc1ncnc(-c2ccc(C(=O)N3CCN(CC4CCCCC4)CC3)c(F)c2)c1C#Cc1ccc(N)nc1 [Example D-94] | 1820
12 | CCc1ncnc(-c2ccc(C(=O)N3CCN(CCOC)CC3)c(F)c2)c1C#Cc1ccc(N)nc1 [Example D-95] | 145
13 | CCc1ncnc(-c2ccc(C(=O)N3CCN(C4CCCC4)CC3)c(F)c2)c1C#Cc1ccc(N)nc1 [Example D-96] | 151
14 | CCc1ncnc(-c2ccc(C(=O)N3CCN(Cc4ccccc4)CC3)c(F)c2)c1C#Cc1ccc(N)nc1 [Example D-97] | 476
15 | CCc1ncnc(-c2ccc(C(=O)N3CCN(c4ccccc4)CC3)c(F)c2)c1C#Cc1ccc(N)nc1 [Example D-98] | 199
16 | CCc1ncnc(-c2ccc(C(=O)N3CCN(CCN(C)C)CC3)c(F)c2)c1C#Cc1ccc(N)nc1 [Example D-99] | 452
17 | CCc1ncnc(-c2ccc(C(=O)N3CCC(N(C)C)CC3)c(F)c2)c1C#Cc1ccc(N)nc1 [Example D-100] | 347
18 | CCc1ncnc(-c2ccc(C(=O)N3CCC(O)(CN(C)C)CC3)c(F)c2)c1C#Cc1ccc(N)nc1 [Example D-103] | 470
19 | CCc1ncnc(-c2ccc(C(=O)N3CCC(CCO)CC3)c(F)c2)c1C#Cc1ccc(N)nc1 [Example D-104] | 125
20 | CCc1ncnc(-c2ccc(C(=O)N3CCN(CC4CC4)CC3)c(F)c2)c1C#Cc1ccc(N)nc1 [Example D-106] | 249
21 | CCc1ncnc(-c2ccc(C(=O)N3CCC(N4CCC(C)CC4)C3)c(F)c2)c1C#Cc1ccc(N)nc1 [Example D-108] | 313
22 | CCc1ncnc(-c2ccc(C(=O)N3CCCC(O)C3)c(F)c2)c1C#Cc1ccc(N)nc1 [Example D-110] | 64
23 | CCc1ncnc(-c2ccc(C(=O)N3CCC(N4CCCC4)CC3)c(F)c2)c1C#Cc1ccc(N)nc1 [Example D-112] | 323
24 | CCc1ncnc(-c2ccc(C(=O)N3CCNCC3)c(F)c2)c1C#Cc1ccc(N)nc1 [Example D-113] | 57
25 | CCc1ncnc(-c2ccc(C(=O)N3CCN(CC4CCCN(C)C4)CC3)c(F)c2)c1C#Cc1ccc(N)nc1 [Example D-114] | 188

Row | SMILES | IC50 [nM]
26 | CCOC(=O)N1CCN(C(=O)c2ccc(-c3ncnc(CC)c3C#Cc3ccc(N)nc3)cc2F)CC1 [Example D-116] | 129
27 | CCc1ncnc(-c2ccc(C(=O)N3CCN(/C(=N\C#N)NC)CC3)c(F)c2)c1C#Cc1ccc(N)nc1 [Example D-117] | 27
28 | CCc1ncnc(-c2ccc(C(=O)N3CCCN(C)CC3)c(F)c2)c1C#Cc1ccc(N)nc1 [Example D-118] | 404
29 | CCc1ncnc(-c2ccc(C(=O)N(C)CCN3CCCC3=O)c(F)c2)c1C#Cc1ccc(N)nc1 [Example D-119] | 55
30 | CCc1ncnc(-c2ccc(C(=O)N3CCN(C4CC4)CC3)c(F)c2)c1C#Cc1ccc(N)nc1 [Example D-121] | 127
31 | CCc1ncnc(-c2ccc(C(=O)N3CCN(C(C)C)CC3)c(F)c2)c1C#Cc1ccc(N)nc1 [Example D-122] | 198
32 | CCc1ncnc(-c2ccc(C(=O)N3CCC(O)(C(F)(F)F)CC3)c(F)c2)c1C#Cc1ccc(N)nc1 [Example D-123] | 324
33 | CCc1ncnc(-c2ccc(C(=O)N3CCC(O)(C(C)C)CC3)c(F)c2)c1C#Cc1ccc(N)nc1 [Example D-124] | 228
34 | CCc1ncnc(-c2ccc(C(=O)N3CCC(O)(CC)CC3)c(F)c2)c1C#Cc1ccc(N)nc1 [Example D-125] | 269
35 | CCc1ncnc(-c2ccc(C(=O)N3CCC(O)(c4ccccc4)CC3)c(F)c2)c1C#Cc1ccc(N)nc1 [Example D-126] | 142
36 | CCc1ncnc(-c2ccc(C(=O)N3CCN(C)C(C)(C)C3)c(F)c2)c1C#Cc1ccc(N)nc1 [Example D-127] | 344
37 | CCc1ncnc(-c2ccc(C(=O)N3CCN(C)C(C)C3)c(F)c2)c1C#Cc1ccc(N)nc1 [Example D-128] | 157
38 | CCc1ncnc(-c2ccc(C(=O)N3CCN(C(C)CC)CC3)c(F)c2)c1C#Cc1ccc(N)nc1 [Example D-129] | 392
39 | CCc1ncnc(-c2ccc(C(=O)N3CCN(C(CC)CC)CC3)c(F)c2)c1C#Cc1ccc(N)nc1 [Example D-130] | 384
40 | CCc1ncnc(-c2ccc(C(=O)N3CCC[C@@H]3CO)c(F)c2)c1C#Cc1ccc(N)nc1 [Example D-131] | 119
41 | CCc1ncnc(-c2ccc(C(=O)N3CC(C)NC(C)C3)c(F)c2)c1C#Cc1ccc(N)nc1 [Example D-132] | 184
42 | CCc1ncnc(-c2ccc(C(=O)N3CCN(C)C(=O)C3)c(F)c2)c1C#Cc1ccc(N)nc1 [Example D-133] | 115
43 | CCc1ncnc(-c2ccc(C(=O)N3CCC[C@H]3CO)c(F)c2)c1C#Cc1ccc(N)nc1 [Example D-135] | 136
44 | CCc1ncnc(-c2ccc(C(=O)N3CCN(CC4CC4)CC3)c(Cl)c2)c1C#Cc1ccc(N)nc1 [Example D-136] | 228
45 | CCc1ncnc(-c2ccc(C(=O)N3CCC(C4CCN(C)CC4)CC3)c(Cl)c2)c1C#Cc1ccc(N)nc1 [Example D-139] | 374
46 | CCc1ncnc(-c2ccc(C(=O)NC3CCCN(C)C3)c(Cl)c2)c1C#Cc1ccc(N)nc1 [Example D-140] | 510
47 | CCc1ncnc(-c2ccc(C(=O)N3CCC(OC)CC3)c(Cl)c2)c1C#Cc1ccc(N)nc1 [Example D-142] | 94
48 | CCc1ncnc(-c2ccc(C(=O)N3CCC(C)(O)CC3)c(Cl)c2)c1C#Cc1ccc(N)nc1 [Example D-143] | 77
49 | CCc1ncnc(-c2ccc(C(=O)N3CC[C@H](O)C3)c(Cl)c2)c1C#Cc1ccc(N)nc1 [Example D-145] | 58
50 | CCc1ncnc(-c2ccc(C(=O)N3CC[C@@H](O)C3)c(Cl)c2)c1C#Cc1ccc(N)nc1 [Example D-146] | 66

Row | SMILES | IC50 [nM]
51 | CCc1ncnc(-c2ccc(C(=O)N3CCCC(O)C3)c(Cl)c2)c1C#Cc1ccc(N)nc1 [Example D-147] | 65
52 | CCc1ncnc(-c2ccc(C(=O)N3CCNCC3)c(Cl)c2)c1C#Cc1ccc(N)nc1 [Example D-152] | 164
53 | CCc1ncnc(-c2ccc(C(=O)N(C)O)c(Cl)c2)c1C#Cc1ccc(N)nc1 [Example D-153] | 67
54 | CCc1ncnc(-c2ccc(C(=O)N3CCCN(C)CC3)c(Cl)c2)c1C#Cc1ccc(N)nc1 [Example D-154] | 405
55 | CCc1ncnc(-c2ccc(C(=O)N3CCN(c4ccncc4)CC3)c(Cl)c2)c1C#Cc1ccc(N)nc1 [Example D-155] | 209
56 | CCc1ncnc(-c2ccc(C(=O)N3CCCOCC3)c(Cl)c2)c1C#Cc1ccc(N)nc1 [Example D-157] | 65
57 | CCc1ncnc(-c2ccc(C(=O)NCC3(C)COC3)c(Cl)c2)c1C#Cc1ccc(N)nc1 [Example D-159] | 66
58 | CCc1ncnc(-c2ccc(C(=O)N3CCN(Cc4ccccc4)CC3)c(Cl)c2)c1C#Cc1ccc(N)nc1 [Example D-160] | 658
59 | Cc1ncnc(-c2ccc(C(=O)N3CCN(c4ccccc4)CC3)cc2)c1C#Cc1ccc(N)nc1 [Example D-188] | 67
60 | COCCN1CCN(C(=O)c2ccc(-c3ncnc(C)c3C#Cc3ccc(N)nc3)cc2)CC1 [Example D-189] | 118
61 | CCCCN1CCN(C(=O)c2ccc(-c3ncnc(C)c3C#Cc3ccc(N)nc3)cc2)CC1 [Example D-190] | 153
62 | Cc1ncnc(-c2ccc(C(=O)N3CCN4CCCCC4C3)cc2)c1C#Cc1ccc(N)nc1 [Example D-191] | 81
63 | Cc1ncnc(-c2ccc(C(=O)N3CCN(C4CCS(=O)(=O)C4)CC3)cc2)c1C#Cc1ccc(N)nc1 [Example D-192] | 134
64 | Cc1ncnc(-c2ccc(C(=O)N3CCN(C4CCOCC4)CC3)cc2)c1C#Cc1ccc(N)nc1 [Example D-193] | 65
65 | Cc1ncnc(-c2ccc(C(=O)N3CCN(CCO)CC3)cc2)c1C#Cc1ccc(N)nc1 [Example D-194] | 106
66 | CCc1ncnc(-c2ccc(C(=O)NCC(O)CN(C)C)c(F)c2)c1C#Cc1ccc(N)nc1 [Example D-196] | 292
67 | CCc1ncnc(-c2ccc(C(=O)NC3CCCN(C)C3)c(F)c2)c1C#Cc1ccc(N)nc1 [Example D-197] | 280
68 | CCc1ncnc(-c2ccc(C(=O)NC3CC(N4CCN(C)CC4)C3)c(F)c2)c1C#Cc1ccc(N)nc1 [Example D-198] | 203
69 | CCc1ncnc(-c2ccc(C(=O)NC3CCN(C)C3)c(F)c2)c1C#Cc1ccc(N)nc1 [Example D-199] | 347
70 | CCc1ncnc(-c2ccc(C(=O)NC[C@H]3CCCN3CC)c(F)c2)c1C#Cc1ccc(N)nc1 [Example D-200] | 566
71 | CCc1ncnc(-c2ccc(C(=O)NC3CCN(CCOC)CC3)c(F)c2)c1C#Cc1ccc(N)nc1 [Example D-201] | 134
72 | CCc1ncnc(-c2ccc(C(=O)NC3CC(C)(C)N(C)C(C)(C)C3)c(F)c2)c1C#Cc1ccc(N)nc1 [Example D-202] | 413
73 | CCc1ncnc(-c2ccc(C(=O)N3CC[C@H](O)C3)c(F)c2)c1C#Cc1ccc(N)nc1 [Example D-203] | 57

Reference: patent publication US8633183B2 (priority 2010, dated 2014)
